Results published in patent US20230364079A1, “COMPOUND AS BRAIN-PERMEABLE BTK OR HER2 INHIBITOR, PREPARATION METHOD THEREFOR, AND USE THEREOF” (CHENGDU HYPERWAY PHARMACEUTICALS CO., LTD., priority 2020, published 2023).

Key:
BTK wild-type kinase = BTK wild-type kinase (Homo sapiens (Human), UniProt Q06187); experiment: BTK kinase activity inhibition test in vitro (Caliper EZ Reader); type: biochemical
Outline: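 Compound (10 mM DMSO stock) preincubated with kinase 10 min at room temperature, then ATP plus kinase substrate 2 added, 10 min reaction at room temperature before stop. Substrate conversion read by Caliper mobility shift; inhibition normalised to no-enzyme and no-compound controls, IC50 by variable-slope log(inhibitor) fit.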

BT474 cell proliferation = experiment: In vitro cell proliferation inhibitory activity test (CTG), BT474; type: cell-based
Procedure: (§1) Test Example 4: In Vitro Cell Proliferation Inhibitory Activity Test
(§2) Cells were cultured in 1640 medium, added with 10% inactivated FBS and 1% double antibiotics, and cultured at 37° C. and 5% CO2.
(§3) (1) Cells were routinely cultured until the cell density was 80%-90%, and the cells were harvested when their number reached the requirement.
(§4) (2) Cells were resuspended with corresponding culture medium, counted, and prepared into cell suspension at appropriate density.
(§5) (3) The cell suspension was added to a 96-well plate, 100 µL per well.
(§6) (4) Cells were cultured overnight in a 37° C., 5% CO2 incubator.
(§7) (1) The compounds to be tested were diluted with DMSO to make a stock solution with a final concentration of 20 mM for later use.
(§8) (2) The stock solution was diluted 10 times from 20 mM to 2 mM with DMSO, and then diluted 3 times from 2 mM to 9 concentrations.
(§9) (3) The blank control wells were cells plus 0.5% DMSO, as high-reading control wells.
(§10) (4) Wells with no cells and only medium were used as low-reading control wells.
(§11) 4: Cell Treatment With Compound
(1) 24 h after the cells were plated, the compounds acted alone, and 99 µL of growth medium was added to each well, followed by 1 µL of the compound prepared in step 3. […]
(§12) (3) The chemiluminescent signal value was read with the Envision instrument.
IC50 was calculated by using GraphPad Prism 8 software. […]

TMD8 cell proliferation = experiment: In vitro cell proliferation inhibitory activity test (CTG), TMD8; type: cell-based, human; conditions: TMD8 cells, 72 h
Procedure: as §1, §2, §3, §4, §5, §6, §7, §8, §9, §10, §11
(1) 24 h after the cells were plated, the compounds acted alone, and 99 µL of growth medium was added to each well, followed by 1 µL of the compound prepared in step 3. The plate was shaken gently to mix uniformly, and then placed in a 37° C., 5% CO2 incubator.
(2) The cell plate was placed in an incubator for 72 h.
5: Detection by CTG Method
(1) The cell plate to be tested was placed at room temperature for 30 min, and 100 µL of medium was discarded from each well.
(2) 100 µL of CTG reagent (CelltiterGlo kit) was added to each well, placed on a fast shaker for 2 min, and stood at room temperature in the dark for 30 min.
as §12
IC50 was calculated by using GraphPad Prism 8 software. The IC50 (half inhibitory concentration) of the compound was derived using the following nonlinear fitting formula, and the results are shown in the following table: […]

BTK wild-type kinase, sequence (Q06187 whole entry): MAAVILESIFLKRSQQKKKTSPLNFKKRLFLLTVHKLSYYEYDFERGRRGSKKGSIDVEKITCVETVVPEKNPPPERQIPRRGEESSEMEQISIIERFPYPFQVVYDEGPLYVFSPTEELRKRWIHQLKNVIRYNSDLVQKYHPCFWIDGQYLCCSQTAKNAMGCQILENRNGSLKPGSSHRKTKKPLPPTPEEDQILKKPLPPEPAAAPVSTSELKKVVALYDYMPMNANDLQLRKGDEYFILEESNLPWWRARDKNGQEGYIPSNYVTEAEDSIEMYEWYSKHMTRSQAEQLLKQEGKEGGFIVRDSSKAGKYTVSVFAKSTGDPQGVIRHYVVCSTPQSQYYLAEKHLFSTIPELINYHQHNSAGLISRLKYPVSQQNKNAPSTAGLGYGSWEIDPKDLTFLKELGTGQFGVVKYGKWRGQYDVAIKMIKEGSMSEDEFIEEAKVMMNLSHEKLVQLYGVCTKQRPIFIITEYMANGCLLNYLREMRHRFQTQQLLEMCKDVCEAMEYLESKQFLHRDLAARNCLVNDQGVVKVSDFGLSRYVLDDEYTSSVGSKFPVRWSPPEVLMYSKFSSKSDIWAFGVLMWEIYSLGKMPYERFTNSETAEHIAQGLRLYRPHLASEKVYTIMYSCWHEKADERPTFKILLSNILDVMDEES

## Nc1nccn2c(C3CCC(CO)OC3)nc(-c3ccc(C(F)(F)c4ccccc4)cc3)c12 (single isomer, unassigned) [Compound 111-P2]
BTK wild-type kinase
  IC50: 20 to 100 nM
BT474 cell proliferation
  IC50: 2180 nM
TMD8 cell proliferation
  IC50: 275 nM
